Experiment [1] deals with T1, human recombinant dopamine D2L receptor (Homo sapiens, UniProt P14416).
T1 construct: expressed in transfected cells; host or cells: CHO cells
The experiment is described as follows: Dopamine D2L antagonist activity ([35S]GTPγS binding, SPA). The experiment is classed as biochemical. Here is the method:
To determine for agonist or antagonist activity of compounds of the invention in functional assays, human recombinant dopamine D2L receptor stably expressed in Chinese hamster ovary (CHO) cells (Senogles S E et al. J Biol Chem. 265(8): 4507, 1990) was used. Compounds of invention were pre-incubated with the membranes (0.1 mg/ml) and […] in modified HEPES buffer (20 mM HEPES, pH 7.4, 100 mM NaCl, 10 mM MgCl2, 1 mM DTT, 1 mM EDTA) for 20 minutes and Scintillation Proximity Assay (SPA) beads were added for another 60 minutes at 30° C. The reaction was initiated by 0.3 nM [^35S]GTPγS for an additional 15 minute incubation period. […] Compounds were screened at 3 μM or lower, using 0.4% DMSO as vehicle. Assay results are presented as the percent response of specific binding in Table 8.
For orientation: GTPγS resists hydrolysis and so accumulates on activated G proteins.

For experiment [2], the target named is human recombinant dopamine D2S receptor (Homo sapiens, UniProt P14416). The experiment is described as follows: Dopamine D2S antagonist activity ([35S]GTPγS binding, SPA). The experiment is classed as biochemical. Here is the method:
To determine for agonist or antagonist activity of compounds of the invention in functional assays, human recombinant dopamine D2S receptor stably expressed in Chinese hamster ovary (CHO) cells (Gilliland S L and Alper R H. Naunyn-Schmiedeberg's Archives of Pharmacology. 361: 498, 2000) was used. Compounds of invention were pre-incubated with the membranes (0.05 mg/ml) and 3 μM GDP in modified HEPES buffer (20 mM HEPES, pH 7.4, 100 mM NaCl, 10 mM MgCl2, 1 mM DTT, 1 mM EDTA) for 20 minutes and Scintillation Proximity Assay (SPA) beads were then added for another 60 minutes at 30° C. The reaction was initiated by 0.3 nM [^35S]GTPγS for an additional 30 minute incubation period. […] Compounds were screened at 3 μM or lower, using 0.4% DMSO as vehicle. Assay results are presented as the percent response of specific binding in Table 9.

Experiment [3] deals with T2, human recombinant serotonin 5-HT2A receptor (Homo sapiens, UniProt P28223).
T2 construct: expressed in transfected cells; host or cells: HEK-293 cells
T2 sequence (P28223 whole entry): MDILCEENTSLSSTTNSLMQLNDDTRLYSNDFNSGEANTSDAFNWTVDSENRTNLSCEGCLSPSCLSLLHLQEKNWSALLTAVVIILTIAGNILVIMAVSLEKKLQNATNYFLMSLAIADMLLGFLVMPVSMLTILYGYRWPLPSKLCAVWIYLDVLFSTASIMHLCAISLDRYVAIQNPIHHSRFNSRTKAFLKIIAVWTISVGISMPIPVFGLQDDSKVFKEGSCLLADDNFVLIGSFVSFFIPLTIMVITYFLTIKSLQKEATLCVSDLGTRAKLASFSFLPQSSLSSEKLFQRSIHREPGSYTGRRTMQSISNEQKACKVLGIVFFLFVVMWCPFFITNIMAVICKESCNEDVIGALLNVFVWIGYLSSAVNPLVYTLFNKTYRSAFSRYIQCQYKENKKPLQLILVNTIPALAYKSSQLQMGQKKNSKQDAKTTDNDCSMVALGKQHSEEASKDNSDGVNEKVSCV
Briefly: Serotonin 5-HT2A agonist/antagonist functional assay (calcium fluorescence, HEK-293). In kind it is cell-based. The conditions noted are these: antagonist mode. An excerpt: To determine for agonist or antagonist activity of compounds of the invention in functional assays, human recombinant serotonin 5-HT2A receptor expressed in human embryonic kidney (HEK-293) cells (Jerman J C, Brough S J, Gager T, Wood M, Coldwell M C, Smart D and Middlemiss D N. Eur J Pharmacol, 414: 23-30, 2001) was used. Cells were suspended in DMEM buffer, and distributed in microplates. A cytoplasmic calcium fluorescent indicator which varies proportionally to the free cytosolic Ca^2+ ion concentration was mixed with probenicid in HBSS buffer complemented with 20 mM Hepes (pH 7.4), added into each well and equilibrated with the cells for 30 min at 37° C. followed by 30 min at 22° C. […]
The standard reference antagonist was ketanserin, which was tested in each experiment at several concentrations to generate a concentration-response curve from which its IC50 value was calculated.

Setting [4] is: 0.3 uM, two values = assay run twice, read-out: Antagonist Activity As Measured by % Inhibition D2L.
[5] abbreviates: two values = assay run twice, read-out: Antagonist Activity As Measured by % Inhibition D2S.
The mark [6] stands for this setting: 0.03 uM, two values = assay run twice.

The values below come from patent US9096591B2, “Tetracyclic compounds” (Medivation Technologies, Inc., priority 2007, dated 2015).

SMILES strings stand for the structures. Several values for one entry are separate records, joined by “and”; a condition that tells them apart may be missing. Equal entries are not always repeated.

Chain of human recombinant dopamine D2S receptor (P14416 1-414 isoform P14416-2): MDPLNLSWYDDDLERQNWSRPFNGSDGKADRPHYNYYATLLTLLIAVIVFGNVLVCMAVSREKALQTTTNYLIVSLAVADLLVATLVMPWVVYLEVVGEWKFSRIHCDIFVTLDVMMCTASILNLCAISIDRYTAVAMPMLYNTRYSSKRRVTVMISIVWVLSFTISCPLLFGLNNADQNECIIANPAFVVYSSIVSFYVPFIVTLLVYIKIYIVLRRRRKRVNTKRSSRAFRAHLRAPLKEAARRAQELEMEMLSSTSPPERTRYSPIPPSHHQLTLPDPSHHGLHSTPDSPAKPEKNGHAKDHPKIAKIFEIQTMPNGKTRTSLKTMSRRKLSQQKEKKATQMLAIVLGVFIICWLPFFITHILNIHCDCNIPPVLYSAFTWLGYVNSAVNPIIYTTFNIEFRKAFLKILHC
T1 sequence (P14416 whole entry): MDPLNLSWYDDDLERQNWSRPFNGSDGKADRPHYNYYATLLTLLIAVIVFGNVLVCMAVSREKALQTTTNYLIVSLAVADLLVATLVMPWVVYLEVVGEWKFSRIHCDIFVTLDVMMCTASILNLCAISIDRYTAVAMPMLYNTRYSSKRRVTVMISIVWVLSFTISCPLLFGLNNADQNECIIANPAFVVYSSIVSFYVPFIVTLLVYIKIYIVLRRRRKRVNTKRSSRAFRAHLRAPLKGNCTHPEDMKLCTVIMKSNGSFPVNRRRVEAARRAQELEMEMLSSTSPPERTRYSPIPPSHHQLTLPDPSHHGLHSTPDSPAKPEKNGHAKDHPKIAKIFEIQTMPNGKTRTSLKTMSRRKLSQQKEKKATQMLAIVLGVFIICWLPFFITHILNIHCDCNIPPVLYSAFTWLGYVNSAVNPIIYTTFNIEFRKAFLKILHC

On to `Cc1ccc2c(c1)c1c(n2CCc2ccc(C(F)(F)F)nc2)CCN(C)C1` [Compound 68], for which the inhibition (commonly the change of the read-out against control, counted positive when it falls) at 0.3 µM in experiment [1] (setting [4]) turned out to be 8%; in experiment [2] (setting [5]), 42%. Besides, the inhibition at 1 µM in experiment [1] (1 uM, read-out: Antagonist Activity As Measured by % Inhibition D2L) came to 27%; in experiment [2] (1 uM, read-out: Antagonist Activity As Measured by % Inhibition D2S), 70%. In addition, the inhibition at 3 µM stood at 54% in experiment [1] (3 uM, read-out: Antagonist Activity As Measured by % Inhibition D2L) and 93% in experiment [2] (3 uM, read-out: Antagonist Activity As Measured by % Inhibition D2S).
`CN1CCc2c(c3cc(F)ccc3n2CCc2ccc(F)cc2)C1` [Compound 253]: the “% of Control Agonist Response, 1st Assay” value in experiment [3] (test concentration 1.00E−06 M) is 0%; in experiment [3] (test concentration 1.00E−07 M), 94%; in experiment [3] (test concentration 3.00E−06 M) it was −3%; in experiment [3] (test concentration 3.00E−07 M), 36%; in experiment [3] (test concentration 3.00E−08 M) it was 114%. Besides, the “% of Control Agonist Response, 2nd Assay” value is 3% in experiment [3] (test concentration 1.00E−06 M); 95% in experiment [3] (test concentration 1.00E−07 M); −3% in experiment [3] (test concentration 3.00E−06 M); 80% in experiment [3] (test concentration 3.00E−07 M); 119% in experiment [3] (test concentration 3.00E−08 M). The “% of Control Agonist Response, Mean” value in experiment [3] (test concentration 1.00E−06 M) is listed as 1.5%; in experiment [3] (test concentration 1.00E−07 M), 94.3%; in experiment [3] (test concentration 3.00E−06 M), −2.6%; in experiment [3] (test concentration 3.00E−07 M), 57.9%; in experiment [3] (test concentration 3.00E−08 M), 116.5%. Further, the “Antagonist Activity As Measured by % Inhibition D2L” value came out at 56% in experiment [1] (setting [6]); 77% in experiment [1] (0.1 uM, two values = assay run twice); 89% in experiment [1] (0.3 uM, two values = assay run twice). For the same molecule, in experiment [1] (0.03 uM, two values = assay run twice, read-out: Antagonist Activity As Measured by % Inhibition D2L), the inhibition at 0.03 µM is 36%. The inhibition at 0.1 µM in experiment [1] (0.1 uM, two values = assay run twice, read-out: Antagonist Activity As Measured by % Inhibition D2L) was determined as 57%; in experiment [2] (0.1 uM, two values = assay run twice, read-out: Antagonist Activity As Measured by % Inhibition D2S), 94%. For the same molecule, the inhibition at 0.3 µM in experiment [1] (setting [4]) came out at 81%; in experiment [2] (setting [5]), 96%. Besides, the “Antagonist Activity As Measured by % Inhibition D2S” value in experiment [2] (setting [6]) was 104% and 80%.
